Results on four molecules are retold here after patent US8193353B2, “6-1H-imidazo-quinazoline and quinolines derivatives, new potent analgesics and anti-inflammatory agents” (Rottapharm S.p.A, priority 2006, dated 2012).

The subject of experiment [1] is IL-6. As to the kind of experiment: IL-6 production in IL-1 stimulated human chondrosarcoma cell line. The format is cell-based. The source says:
(§1) The compounds of the invention have been found effective in interfering with COX-2 and cytokines production, in several cell lines; examples of these effects are reported in Table 3, for COX-2 and IL-1β and IL-6 cytokines, in IL-1 stimulated human chondrosarcoma cell line.

In experiment [2] the test system is IL-1β. As to the kind of experiment: IL-1β production in IL-1 stimulated human chondrosarcoma cell line. The format is cell-based.
Source text: as §1

The test system of experiment [3] is COX-2. As to the kind of experiment: COX-2 production in IL-1 stimulated human chondrosarcoma cell line. Format: cell-based. The note with it: for inhibition at 0.3 µM / inhibition at 1 µM / inhibition at 10 µM: Homo sapiens.
Source text: as §1

Experiment [4] deals with Zymosan induced paw volume increase. As to the kind of experiment: Zymosan-induced paw oedema. The format is in vivo, rat. The note with it: oral; 2 hours after challenge. How it is done: (§2) The interplantar injection of Zymosan-induced mechanical hyperalgesia was used as a model of inflammatory pain (Meller, Neuropharmacology, 1994, 33, 1471-1478). In this model, typically a male Sprague-Dawley or Wistar rat (200-250 g) receives an interplantar injection of 3 mg/100 μl zymosan into one hind paw. A marked inflammation occurs in this hind paw. Drugs are administered orally for evaluation of efficacy, 30 min. before the inflammatory insult. The hyperalgesia induced by zymosan administration was evaluated using the Randall-Selitto method (Arch. Int. Pharmacodyn., 1957, 111, 409). The quantitation of the analgesic effect is achieved by an analgesimeter, which consist in applying to the inflamed paw an increasing weight (from 130-140 g up to 500 g). The difference in the mechanical pain threshold between the basal value (generally 230-250 g) and the one tolerated by the animals treated with the drug, determined 4 hours after the inflammatory challenge, is defined as mechanical hyperalgesia. Mechanical hyperalgesia is expressed for the compounds of the invention as ED50, which is the dose of the administered compound able to increase the pain threshold by 50% in comparison with the group of control animals. The corresponding ED100, representing the dose able of reducing of 100% the pain threshold, can be calculated for those cases where there is a linear dose-response relationship. In vivo anti-inflammatory effect exerted by the compound of the invention can be assessed in the same Zymosan induced inflammation test described above, by measuring the volume of the oedema induced by the inflammatory agent. The oedema was evaluated as the increase in the volume of the Zymosan injected paw within a time of 0-2 hrs. The measurements of the variation of the oedema volume of the paw were recorded using hydroplethysmometer, which consists of two plastic cuvettes containing a surfactant liquid, the larger one being used for immersion of the paw, connected to the smaller one which contains a transducer capable of recording small displacements of the volume used for the measure. The paw is immersed in the cuvettes up to the tibiotarsal joint. The volume of the liquid displaced is proportional to the extent of the inflammation. The efficacy of the compounds of the invention in preventing oedema formation is expressed as ED30, is measured 2 hours after the inflammatory challenge, and represents the dose able of reducing of 30%, the Zymosan induced paw volume increase in comparison to control animals (animals treated with Zymosan but treated with only distilled water instead of the testing compound). The corresponding ED50, representing the dose able of reducing of 50% the Zymosan induced paw volume increase, can be calculated for those cases where there is a linear dose-response relationship. In both the experiments, for each test compound, at least three doses were used, with 10 animals per group. Compounds of the invention were tested at 10, 20 and 40 mg/Kg.

Experiment [5] has as its system Zymosan-induced mechanical hyperalgesia. Briefly: Zymosan-induced mechanical hyperalgesia (Randall-Selitto), inflammatory pain. The format is in vivo, rat. The note with it: oral, 30 min before zymosan, 4 hours after challenge; for ED50: Rattus norvegicus, read-out: Analgesia ED50. How it is done: as §2
Experiment [6] concerns mechanical hyperalgesia associated with STZ-induced diabetes. Briefly: STZ-induced diabetes mechanical hyperalgesia (neuropathic pain). Format: in vivo, rat. On the procedure:
Painful diabetic neuropathy is one of the most common complications of insulin-dependent diabetes in man; in particular, diabetes can be associated with neuropathic pain which fails to be treated by classical analgesics. Streptozotocin (STZ)-induced diabetes in the rat has been increasingly used as a model of painful diabetic neuropathy to assess the efficacies of potential analgesic agents (C. Courteix, Pain 1993, 53, 81-8). The compounds of the invention were tested for efficacy in reducing mechanical hyperalgesia associated with STZ-induced diabetes in the rat, according to the experimental model as described by the literature. Diabetes was produced with the injection of a single dose (75 mg/Kg i.p.) of STZ. In the following four weeks after the induction of diabetes the clinical symptoms (weight, body and skin temperature, motility and hyperglycemia) progressively developed by the animals, are strictly monitored. After four weeks, the scores obtained in diabetic rats to various pain stimuli (in particular mechanical stimuli) were greater than those in normal rats, indicating hyperalgesia. The hyperalgesia induced by diabetes was evaluated using the Randall-Selitto method as above described, and quantitated using the analgesimeter. Also in this case, the difference in the mechanical pain threshold between the basal value (generally 230-250 g) and the one tolerated by the animals treated with the drug, is defined as mechanical hyperalgesia. The compounds of the invention were administered i.p. (solution, Tween 80, 10% in saline) at different doses, and mechanical hyperalgesia was measured at the reported time, as maximum percent effect (MPE) which represents the difference (%) in pain threshold between the animals treated with the drug and the controls that received only the vehicle, compared with the weight borne by naïf non-diabetic controls. A 100% protection means that the diabetic animals treated with the compound can tolerate the same stimulus (weight) as the naïf non-diabetic animals. MPE higher than 100% means that the diabetic animal treated with the compound can tolerate stimuli (weight) higher than the control non-diabetic animals (hypoalgesia).
In particular, from the MPE data at 0.5 hrs, the doses yielding a protection of 50% (ED50) and 100% (ED100) have been calculated.

Experiment [7] deals with CFA-induced prolonged inflammation. Briefly: CFA model of chronic inflammatory pain. Format: in vivo, rat.
The mark [8] stands for this setting: i.p., calculated from MPE data at 0.5 hrs.

In general, inhibition refers to the relative decrease from the control value, in per cent. Read a low inhibition as a response near the control. As for `c1cn(-c2ccc3nc(-c4ccc5c(c4)OCCO5)ncc3c2)cn1` [Example 5], in experiment [1] (10 μM), at 10 µM the inhibition was 35%. In experiment [2], this molecule came in with an inhibition at 0.3 µM of 20%, an inhibition at 1 µM of 30% and an inhibition at 10 µM of 40%. In experiment [3], this molecule had an inhibition at 0.3 µM of 50%, an inhibition at 1 µM of 60% and an inhibition at 10 µM of 70%.
Broadly, the ED50 is the dose that gives a 50% effect, or the effect in half of the subjects. Usually IC50 stands for the concentration that gives 50% inhibition. Consider `c1cn(-c2ccc3nc(-c4ccc5c(c4)OCO5)ncc3c2)cn1` [Example 3, [2-(1,3-benzodioxol-5-yl)-6-(1H-imidazol-1-yl)]quinazoline], for which the inhibition at 0.3 µM came out at 20% in experiment [1] (0.3 μM), 20% in experiment [2] and 35% in experiment [3]. Besides, the inhibition at 1 µM in experiment [1] (1 μM) came to 35%; in experiment [2] it was 15%; in experiment [3], 64%. In addition, the “Oedema Reduction ED30” value in experiment [4] amounted to 172 mg/kg. For the same molecule, the inhibition at 10 µM amounted to 40% in experiment [2] and 75% in experiment [3]. Also, the ED50 was 2.8 mg/kg in experiment [5]; 2.9 mg/kg in experiment [6] (Rattus norvegicus, ip, calculated from MPE data at 0.5 hrs, read-out: ED50 0.5 hrs); 2.7 mg/kg in experiment [7] (Rattus norvegicus, ip, calculated from MPE data at 0.5 hrs). Further, in experiment [5], the “Analgesia ED100” value came to 5 mg/kg. Further, in experiment [3] (IL-1 stimulated human chondrosarcoma cell line, read-out: IC50 (inhibition of COX-2 production)), the IC50 is 630 nM. The “MPE 0.5 hrs.” value in experiment [6] (3 mg/kg i.p.) came out at 73%; in experiment [6] (10 mg/kg i.p.), 141%; in experiment [6] (30 mg/kg i.p.) it was 283%; in experiment [7] (3 mg/kg i.p.) it was 54%; in experiment [7] (10 mg/kg i.p.), 216%; in experiment [7] (30 mg/kg i.p.) it was 344%. The “MPE 1.5 hrs.” value in experiment [6] (3 mg/kg i.p.) was found to be 88%; in experiment [6] (10 mg/kg i.p.), 143%; in experiment [6] (30 mg/kg i.p.), 273%; in experiment [7] (3 mg/kg i.p.), 90%; in experiment [7] (10 mg/kg i.p.) it was 188%; in experiment [7] (30 mg/kg i.p.), 198%. Further, the “MPE 3 hrs.” value in experiment [6] (3 mg/kg i.p.) stood at 50%; in experiment [6] (10 mg/kg i.p.), 98%; in experiment [6] (30 mg/kg i.p.), 263%; in experiment [7] (3 mg/kg i.p.) it was 32%; in experiment [7] (10 mg/kg i.p.) it was 85%; in experiment [7] (30 mg/kg i.p.) it was 101%. The “MPE 6 hrs.” value was 24% in experiment [6] (3 mg/kg i.p.); 49% in experiment [6] (10 mg/kg i.p.); 264% in experiment [6] (30 mg/kg i.p.); 5% in experiment [7] (3 mg/kg i.p.); 23% in experiment [7] (10 mg/kg i.p.); 49% in experiment [7] (30 mg/kg i.p.). For the same molecule, the “ED100 0.5 hrs” value in experiment [6] (setting [8]) is given as 5.3 mg/kg; in experiment [7] (setting [8]), 4.7 mg/kg. Also, the “MPE 24 hrs.” value is 3% in experiment [7] (10 mg/kg i.p.) and 41% in experiment [7] (30 mg/kg i.p.).
Regarding `CN(C)CCC=C1c2ccccc2CCc2ccccc21` [Amitriptyline, reference compound], in experiment [6] (3 mg/kg i.p.), the “MPE 0.5 hrs.” value worked out at 44%, the “MPE 1.5 hrs.” value is on record as 40% and the “MPE 3 hrs.” value is reported as 5%. In addition, in experiment [6] (10 mg/kg i.p.), the “MPE 0.5 hrs.” value was 68% and the “MPE 1.5 hrs.” value was 77%. In experiment [6] (30 mg/kg i.p.), the “MPE 0.5 hrs.” value is 65%, the “MPE 1.5 hrs.” value is listed as 69% and the “MPE 3 hrs.” value was found to be 23%.
As for `Cc1ccc(-c2cc(C(F)(F)F)nn2-c2ccc(S(N)(=O)=O)cc2)cc1` [Celecoxib], in experiment [4], the “Oedema Reduction ED30” value is 13.8 mg/kg. Moreover, in experiment [5], the ED50 is 9 mg/kg and the “Analgesia ED100” value amounted to 1172 mg/kg.
